For `CCC(CC1(c2ccc(Cl)c(Cl)c2)CCC1)=NO`, the melting point was in the range of 106 to 110 °C.
In the case of `C=CCOc1cccc([N+](=O)[O-])c1OC` it was 93 to 94 °C; in that of `O=c1cc(O)c2ccc(OCC(O)COc3ccccc3)cc2o1` (stereo not drawn), 145 to 175 °C.
In the case of `CC(=O)C(Cl)=NNc1ccccc1S(C)(=O)=O` it was 253 to 255 °C.
To `CC(=CCc1c(C)c(N=Nc2ccc([N+](=O)[O-])cc2[N+](=O)[O-])c2ccccc2c1O)CCCC(C)CCCC(C)CCCC(C)C` (stereo not drawn) belongs 110 °C; to `COc1c(C2CCN(CCCCNC(=O)c3ccc(-c4ccc(NC(=O)C(F)(F)F)cc4)cc3)CC2)ccc2c1CCCC2`, 226 to 228 °C.
The compound `OCc1ccc2ccc3cccc4ccc1c2c34` had a melting point of 125 to 126 °C.
In the case of `CC(C)OCC(COC(C)C)OCn1cnc2cnc(N)nc21` it was 89 to 90 °C.
To `CCOC(=O)c1cnn(-c2ccccn2)c1S(N)(=O)=O` belongs 73 to 76 °C; to `COc1cc(O)c(CC=C(C)C)c(O)c1C(=O)C=Cc1ccc(O)cc1`, 172 °C.
In the case of `CCOC(=O)Oc1cc2occ(C=O)c(=O)c2cc1OC(=O)OCC` it was 101 to 102 °C; in that of `COc1ccc2c(c1)c(CC(=O)O)c(C)n2-c1ncnc2cc(Cl)ccc12`, 202 to 204 °C; in that of `CCCN(CCC)Cc1nc(-c2ncn3c2CN(C)C(=O)c2c(Br)cccc2-3)no1`, 135 to 145 °C.
With `CCNC1([C@@H]2CCN(c3ccc4c(=O)c(C(=O)O)cn([C@@H]5C[C@@H]5F)c4c3C)C2)CC1`, the melting point was in the range of 191 to 194 °C.
As to `CN1C(=O)OC[C@H]1Cc1ccccc1`, the melting point fell in the range of 75 to 77 °C.
In the case of `CC(C)C(=O)Nc1nn(C)c2c1sc1c(Cl)cccc12` it was 218 to 219 °C; in that of `COC(=O)c1ccc(C(=O)NS(=O)(=O)c2ccc(CCNC(=O)c3ccccc3)cc2)cn1`, 228 to 230 °C.
Turning to `Nc1c2c(nc3cc(C(F)(F)F)ccc13)CCSC2`, the melting point was in the range of 253 to 259 °C.
In the case of `Cc1cc(-c2cc(C(F)(F)F)n3ncc(C(=O)Nc4cc(S(=O)(=O)NC(C)(C)CO)sc4Cl)c3n2)ccc1C(F)(F)F` it was 207 °C; in that of `Cc1cc(-n2cncn2)c2cccc(OCc3c(Cl)ccc(S(=O)(=O)N4CCC[C@H]4C(=O)NCC4CCN(C(=O)OC(C)(C)C)CC4)c3Cl)c2n1`, 94 °C.
In the case of `Cc1c(F)c(F)cc2c(=O)c(C(=O)O)cn(-c3cc(O)c(F)cc3F)c12` it was 270 to 278 °C; in that of `CCCCCCCCCCCCNC(=O)C(CC(=O)O)Sc1nc2ccccc2s1` (stereo not drawn), 117 to 121 °C; in that of `N#Cc1ccc2c(c1)[nH]c(=S)n2NC(=O)c1ccc(Cl)c(S(N)(=O)=O)c1`, 315 °C.
In the case of `FC(F)(F)c1cc(-c2ccc(Cl)cc2)nc2c(-c3ccncc3)ncn12` it was 290 °C.
`O=Cc1cc([N+](=O)[O-])cc(Cl)c1S`: the melting point was 84 to 89 °C.
In the case of `CCC(C)C(S)C(=O)NC1(C(=O)NC(Cc2ccc(-c3ccco3)nc2)C(=O)O)CCCC1` (stereo not drawn) it was 175 to 180 °C; in that of `CCOC(=O)Cn1c(=O)n(Cc2ccc(Cl)cc2)c(=O)c2c(C)c(C)sc21`, 151 to 152 °C.
To `O=P(Oc1ccc(-c2ccc(OP(=O)(c3ccccc3)c3ccccc3)cc2)cc1)(c1ccccc1)c1ccccc1` belongs 233 to 234 °C.
`CSc1nccc(-c2c(-c3ccc(F)cc3)ncn2C2CCN(C)CC2)n1` gave a melting point of 181 to 182 °C.
In the case of `COC(=O)C(C)n1nnc2ccc(O)cc21` (stereo not drawn) it was 132 to 134 °C.
Regarding `O=C(O)COc1c(F)ccc(-c2c3ccccc3c(Br)c3sc4ccccc4c23)c1F`, the melting point lay within 195 to 197 °C.
To `O=C(Nc1cccc(-c2ccnc3c(C(=O)c4cccs4)cnn23)c1)c1cnc[nH]1` belongs 280 to 282 °C; to `COc1c(C)cccc1Oc1ccccc1`, 52 to 53 °C; to `CC(C)(C)OC(=O)N1CCN(c2ccc(OC[C@H]3CCn4cc([N+](=O)[O-])nc4O3)cc2)CC1`, 207 to 208 °C.
In the case of `O=C(N[C@H]1CC[C@H](CCN2CCN(c3nccc4c3OCC4)CC2)CC1)C1CCC1` it was 186 °C; in that of `COCCNC(=O)c1cccc(-c2cccc3cc(Cc4ccc(Cl)s4)sc23)c1`, 104 to 105 °C; in that of `Cc1cc(C(=O)Nc2ccc(OCC(C)(C)C)c(C#N)c2)n(-c2ccc(F)cc2)n1`, 165 °C.
In the case of `Cn1nnc2sccc2c1=O` it was 104 to 108 °C; in that of `COc1ccc2[nH]c(-c3ccccc3N)cc2c1`, 198 to 200 °C.
In turn, `Cc1ccc(S(=O)(=O)OCCOc2ccc(N)c(CS(=O)(=O)c3ccccc3)c2)cc1` returned a melting point of 144 to 146 °C.
In the case of `Cc1cc([C@H]2CN3C(=O)N(c4cc(Cl)nc(Cl)c4)C(=O)[C@]3(Cc3ccc(OC(F)(F)F)cc3)C2)c(C)[nH]1` it was 112 °C; in that of `O=S(=O)(Nc1ncnc(OCCO)c1-c1cccc(Cl)c1)c1ccc(Cl)cc1`, 178 to 180 °C; in that of `COc1ccc(SC2SC(=O)NC2=O)cc1` (stereo not drawn), 89 to 91 °C.
To `COC(=O)CCc1ccc(OC2Cc3ccccc3C2)cc1` belongs 73 to 74 °C; to `Cc1cc(C(=O)O)ccc1C#CCc1ccc2c(c1)C(C)(C)CCC2(C)C`, 196 to 197 °C; to `CNc1ccccc1C(O)c1ccccc1` (stereo not drawn), 124 to 126 °C.
To `CCCCCCCCCCCCCCCCCCOc1ccccc1CC(=O)CO` belongs 59 to 60 °C.
Consider `CC(C)c1cccc(C(C)C)c1NC(=O)NCC1(S(=O)(=O)c2ccccc2)CCCC1`, for which the melting point worked out at 124 °C.
To `O=C(Nc1ccccc1C(F)(F)F)c1c(O)c2ccccc2oc1=O` belongs 157 to 159 °C.
In the case of `Nc1ccc(C(=S)N2CCCCC2)cc1` it was 162 to 164 °C.
On to `CNC(=O)c1cc(-c2ccc(OC)cc2)nn(CC(=O)NCc2ccccn2)c1=O`, for which the melting point was in the range of 195 to 196 °C.
In the case of `O=C(NCC(=O)N1c2ccccc2N(Cc2ccccc2)C(=O)[C@H]2CCC[C@H]21)c1ccco1` (relative stereo), the melting point was in the range of 169 to 170 °C.
On to `CC(C)CCNC(Nc1cc(C(F)(F)F)cc(C(F)(F)F)c1)=C(C#N)C(=O)OC(C)(C)C`, for which the melting point was in the range of 128 to 129 °C.
In the case of `COC(=O)/C=C/c1c(SC(F)(F)F)c(C#N)nn1-c1c(Cl)cc(C(F)(F)F)cc1Cl` it was 90 °C; in that of `CCCCn1c(=O)c2cc(OC)c(OC)cc2c2nnc3cc4c(cc3c21)OCO4`, 299 °C; in that of `O=C1CSc2cccc(Cl)c2N1`, 160 to 161 °C.
To `Oc1ccc2c(c1)C(Cc1c[nH]cn1)CC2` (stereo not drawn) belongs 206 to 208 °C; to `NC(=O)CNc1ncccc1N`, 153 to 155 °C; to `O=C1CN(NC(=O)Sc2ccccc2)C(=O)N1`, 152 to 155 °C.
In the case of `CN1CCN(c2cccc3ccc(-n4cnc5ncccc54)cc23)CC1` it was 107 to 112 °C.
In turn, `COC(=O)Cc1ccc(N[C@@H](CCC(N)=O)C(=O)O)cc1` registered a melting point of 183 to 184 °C.
To `O=C(NC1CCCCC1)NC1CCN(CCc2c[nH]c3ccccc23)CC1` belongs 204 °C.
The compound `CN(CC(=O)OC(C)(C)C)S(=O)(=O)c1ccc2c(Cl)cnc(NC(=N)N)c2c1` registered a melting point of 84 °C.
To `O=C(Cc1cccnc1)N1CCC(=C2c3ccc(Cl)cc3CCc3c(Cl)ccnc32)CC1` belongs 59.8 to 63.5 °C; to `CC(=O)Nc1c(OC(C)=O)cc(C(C)(C)C)cc1[N+](=O)[O-]`, 200 to 201 °C.
In the case of `O=C(CSc1ccnc2ccccc12)c1ccc(OCc2ccccc2)cc1` it was 135 to 136 °C; in that of `Nc1ncccc1CNC1CCN(Cc2ccccc2)CC1`, 114 °C; in that of `O=C(Nc1ccccc1)N(Cc1ccc(F)cc1)C1CCCC1`, 120 to 121 °C.
In the case of `CC(C)Sc1cc(C(C)(C)C)c(O)c(C(C)(C)C)c1` it was 80 to 82 °C.
Regarding `O=C(O)C(Cc1ccccc1)Oc1ccc2cc(-c3nc(-c4ccccc4)sc3Br)ccc2c1Br` (stereo not drawn), the melting point was in the range of 221 to 223 °C.
To `Cc1ccc(Sc2nc(-c3ccccc3)cnc2N)cc1` belongs 120 to 122 °C; to `COC(=O)c1ccc(-c2ccc(I)c(O)c2)cc1`, 192 °C.
In the case of `CCNC(=O)N(CC)C(=O)c1nc(Cl)c(Cl)[nH]1` it was 146 °C.
In the case of `O=C1c2ccc(F)cc2CC1c1ccc(F)cc1` (stereo not drawn) it was 72 to 74 °C.
As for `O=c1cc(-c2ccncc2)nc2n1CC(O)CN2` (stereo not drawn), the melting point is 305 to 307 °C.
`O=C1CCCc2cc(F)cc(F)c21` returned a melting point of 57 to 58 °C.
To `C=CC(=O)OCC(=O)OCCCCCCOC(=O)COC(=O)C=C` belongs 66 °C.
To `O=C(O)COc1ccc2c(=O)c3c(F)cccc3oc2c1` belongs 180 to 183 °C; to `Cc1cc(C)c(=O)n(C(C(=O)O)c2ccc3c(c2)OCO3)n1` (stereo not drawn), 165 °C; to `CCCCCCCCC1C=C(Oc2ccc(C(=O)O)o2)C=C2N=C3CCCCC3=C21` (stereo not drawn), 142 to 144 °C.
In the case of `C1=Cc2c(ccc3cccnc23)OC1` it was 207 to 208 °C.
`CCOC(=O)c1ncc2[nH]c3ccc(C4CCCCC4)cc3c2c1COC` gave a melting point of 254 to 266 °C.
In the case of `CC(=O)NC[C@H]1CN(c2ccc(N3CCC(O)(C[N+](=O)[O-])CC3)c(F)c2)C(=O)O1` it was 186 to 187 °C.
To `COC(CN(C)C(=O)Nc1nnc(C(C)Oc2cccc(Cl)c2)s1)OC` (stereo not drawn) belongs 127 to 130 °C; to `Cc1ccc(CNc2nc(Nc3cccc(C(F)(F)F)c3)nc(OCC(F)(F)F)n2)o1`, 72 to 74 °C; to `O=C1NC(C(=O)O)CCCCCCCCCCC1CS` (stereo not drawn), 170 to 172 °C.
In the case of `CCN(CCOc1ccc(NC(=O)c2cccc3c(=O)c4ccccc4[nH]c23)cc1)Cc1ccccc1` it was 157 °C.
Regarding `Cc1cc(C2(C(F)(F)F)CC(c3ccc(Cl)cc3)=NN2C)ccc1NC(=O)c1cccc(I)c1C(=O)NC(C)C` (stereo not drawn), the melting point lay within 90 to 92 °C.
